From ChEMBL document CHEMBL1759985, “In vitro anticancer activity and evaluation of DNA duplex binding affinity of phenyl-substituted indoloquinolines” (Bioorg Med Chem Lett, 2011)
pIC50: −log10 of the molar value. Active and inactive are the calls of the source. The calls are words filed in the database; no cut-off is given here.

Experiments:
[1] = test system: Nucleic Acid; test: Binding affinity to duplex DG DNA in 0.02 M cacodylate buffer assessed as change in melting temperature at 10 uM at pH 7 by UV spectrophotometer analysis; type: nucleic-acid assay
[2] = test system: Nucleic Acid; test: Binding affinity to duplex DG DNA in 0.02 M cacodylate buffer assessed as change in melting temperature at 10 uM at pH 7 by UV spectrophotometer analysis in presence of 0.1 M sodium chloride; type: nucleic-acid assay
[3] = test system: Nucleic Acid; test: Binding affinity to duplex DA DNA in 0.02 M cacodylate buffer assessed as change in melting temperature at 10 uM at pH 7 by UV spectrophotometer analysis; type: nucleic-acid assay
[4] = test system: Nucleic Acid; test: Binding affinity to duplex DA DNA in 0.02 M cacodylate buffer assessed as change in melting temperature at 10 uM at pH 7 by UV spectrophotometer analysis in presence of 0.1 M sodium chloride; type: nucleic-acid assay
[5] = test system: Nucleic Acid; test: Binding affinity to duplex DM DNA in 0.02 M cacodylate buffer assessed as change in melting temperature at 10 uM at pH 7 by UV spectrophotometer analysis; type: nucleic-acid assay
[6] = test system: Nucleic Acid; test: Binding affinity to duplex DM DNA in 0.02 M cacodylate buffer assessed as change in melting temperature at 10 uM at pH 7 by UV spectrophotometer analysis in presence of 0.1 M sodium chloride; type: nucleic-acid assay
[7] = test system: 5637; test: Cytotoxicity against human 5637 cells assessed after 92 hrs by microtiter assay; type: functional, cell-based; settings: Homo sapiens, 5637, 92 h
[8] = test system: RT-4; test: Cytotoxicity against human RT4 cells after 92 hrs by microtiter assay; type: functional, cell-based; settings: RT-4, 92 h
[9] = test system: A-427; test: Cytotoxicity against human A427 cells after 92 hrs by microtiter assay; type: functional, cell-based; settings: A-427, 92 h
[10] = Cytotoxicity against human LCLC-103H cells after 92 hrs by microtiter assay; type: functional, cell-based
[11] = test system: DAN-G; test: Cytotoxicity against human DAN-G cells after 92 hrs by microtiter assay; type: functional, cell-based
[12] = test system: MCF7; test: Cytotoxicity against human MCF7 cells after 92 hrs by microtiter assay; type: functional, cell-based; settings: MCF7, 92 h
[13] = test system: Nucleic Acid; test: Binding affinity to duplex DG DNA in 0.02 M cacodylate buffer assessed as melting temperature at 10 uM at pH 7 by UV spectrophotometer analysis; type: nucleic-acid assay
[14] = test system: Nucleic Acid; test: Binding affinity to duplex DG DNA in 0.02 M cacodylate buffer assessed as melting temperature at 10 uM at pH 7 by UV spectrophotometer analysis in presence of 0.1 M sodium chloride; type: nucleic-acid assay
[15] = test system: Nucleic Acid; test: Binding affinity to duplex DA DNA in 0.02 M cacodylate buffer assessed as melting temperature at 10 uM at pH 7 by UV spectrophotometer analysis; type: nucleic-acid assay
[16] = test system: Nucleic Acid; test: Binding affinity to duplex DA DNA in 0.02 M cacodylate buffer assessed as melting temperature at 10 uM at pH 7 by UV spectrophotometer analysis in presence of 0.1 M sodium chloride; type: nucleic-acid assay
[17] = test system: Nucleic Acid; test: Binding affinity to duplex DM DNA in 0.02 M cacodylate buffer assessed as melting temperature at 10 uM at pH 7 by UV spectrophotometer analysis; type: nucleic-acid assay
[18] = test system: Nucleic Acid; test: Binding affinity to duplex DM DNA in 0.02 M cacodylate buffer assessed as melting temperature at 10 uM at pH 7 by UV spectrophotometer analysis in presence of 0.1 M sodium chloride; type: nucleic-acid assay
[19] = test system: Nucleic Acid; test: Binding affinity to duplex DG DNA assessed as DNA intercalation by circular dichroism spectra analysis; type: nucleic-acid assay
[20] = test system: Nucleic Acid; test: Binding affinity to duplex DG DNA at 0.75 uM by fluorescence emission spectral analysis; type: nucleic-acid assay
[21] = test system: Nucleic Acid; test: Displacement of ethidium bromide from duplex DG DNA after 5 mins; type: nucleic-acid assay

Row | ΔTm [1] [°C] | ΔTm [2] [°C] | ΔTm [3] [°C] | ΔTm [4] [°C] | ΔTm [5] [°C] | ΔTm [6] [°C] | Tm [13] [°C] | Tm [14] [°C] | Tm [15] [°C] | Tm [16] [°C] | Tm [17] [°C] | Tm [18] [°C] | Compound | pIC50 [7] | pIC50 [8] | pIC50 [9] | pIC50 [10] | pIC50 [11] | pIC50 [12] | other results
1 | 0.8 | -0.9 | 1.5 | 0.3 | 1 | 0.2 | 41.5 | 51.6 | 34.3 | 45.1 | 30.7 | 40.3 | Cc1cccc2c(-c3ccc(C(=O)NCCN(C)C)cc3)c3[nH]c4c(C)cccc4c3nc12 | 5.49 | 5.38 | 5.49 | 5.43 | 5.59 | 5.52 | –
2 | 1.7 | -0.5 | 2.5 | 0.5 | 3.1 | 0.5 | 42.4 | 52 | 35.3 | 45.3 | 32.8 | 40.6 | COc1cccc2c(-c3ccc(C(=O)NCCN(C)C)cc3)c3[nH]c4c(OC)cccc4c3nc12 | 5.68 | 5.44 | 5.77 | 5.49 | 5.44 | 5.54 | Activity [19]: Active; Activity [20]: Active; C50 [21]: 93 µM
3 | – | – | – | – | – | – | – | – | – | – | – | – | COC(=O)c1ccc(-c2c3cccc(C)c3nc3c2[nH]c2c(C)cccc23)cc1 | < 4.70 | < 4.70 | < 4.70 | < 4.70 | < 4.70 | 4.86 | –
4 | – | – | – | – | – | – | – | – | – | – | – | – | COC(=O)c1ccc(-c2c3cccc(OC)c3nc3c2[nH]c2c(OC)cccc23)cc1 | 4.96 | < 4.70 | 4.78 | < 4.70 | < 4.70 | < 4.70 | –
